Patent US7820759B2, “Micellar preparation containing sparingly water-soluble anticancer agent and novel block copolymer” (Nippon Kayaku Kabushiki Kaisha, priority 2003, dated 2010)
“And” between values parts separate entries of the source, which are not always exact repeats. Equal values may be shown once.

Columns and labels:
[1] = tested on: female CDF1 mice; test: Toxicity test against mouse extension reflex (peripheral nerve impairment); type: in vivo; conditions: 30 mg/kg in terms of paclitaxel, tail vein, 5 consecutive days, hind limbs
Method: Micellar preparation 10 or paclitaxel alone was administered to female CDF1 mice through their tail veins for consecutive 5 days to observe the extension reflex of their hind limbs providing an indication of peripheral nerve impairment due to paclitaxel. Each agent was prepared as described in Test Example 1, and used directly, or after dilution with saline before use. The dosages used were expressed in terms of paclitaxel.

[2] = Transition of paclitaxel concentrations in the rat plasma; type: in vivo; conditions: intravenous, 5 mg/kg paclitaxel equivalent, tail vein, male SD rats
Method: Micellar preparation 10 from Example 9 was diluted with normal saline solution to make an aqueous solution having a concentration of 2.5 mg/mL in terms of paclitaxel. Paclitaxel alone was dissolved in ethanol, to which Cremophor (Sigma) was then added in the same amount as ethanol to prepare in such a way that the concentration of paclitaxel was adjusted to 25 mg/mL, followed by dilution to 2.5 mg/mL with normal saline solution immediately before administration. Micellar preparation 10 or paclitaxel alone was administered in an amount equivalent to paclitaxel 5 mg/kg to male SD rats through their tail veins, followed by taking blood samples from their cervical veins with time. The plasma obtained by centrifugation was diluted with an appropriate amount of water and subjected to three rounds of extraction with t-butyl methyl ether. The ether layer was recovered, dried up, and then dissolved in 50 μL of actonitrile, followed by quantitating paclitaxel using HPLC.

[3] = tested on: mouse colon cancer Colon 26 cells; test: In vivo antitumor effect against Colon 26; conditions: average tumor volume treated/untreated, 11 days after treatment, 30 mg/kg in terms of paclitaxel, tail vein, 5 consecutive days, female CDF1 mice
Method: Female CDF1 mice were inoculated subcutaneously at the back thereof with the mouse colon cancer Colon 26 cells, and, from the point of time when the volume of tumor has reached around 100 mm^3, micellar preparation 10 according to the invention, the micellar composition from Comparative Example, or paclitaxel was administered through the tail veins of the mice for consecutive 5 days to examine effects against advanced cancer. Each agent was used directly, or after dilution with saline before use. The concentration of each agent was expressed in terms of paclitaxel. The antitumor effect of agent was judged on the basis of a percentage of the average tumor volume in treated group to the average tumor volume in untreated group (T/C %) 11 days after agent treatment.

SMILES: CC(=O)O[C@H]1C(=O)[C@@]2(C)[C@H]([C@H](OC(=O)c3ccccc3)[C@]3(O)C[C@H](OC(=O)[C@H](O)[C@@H](NC(=O)c4ccccc4)c4ccccc4)C(C)=C1C3(C)C)[C@]1(OC(C)=O)CO[C@@H]1C[C@@H]2O [Paclitaxel, paclitaxel]
- Mice showing extension reflex disappearance [1]: 3/3
- Mice showing extension reflex disappearance ([1]; listed as paclitaxel alone): induced the disappearance of extension reflex in all mice
- AUC(0-t) ([2]; read-out: AUC (0-360) (converted)): 1170 ng·h/mL
- concentration at 10 min ([2]; blood drawing time 10 min): 1050 ng/mL
- concentration at 30 min ([2]; blood drawing time 30 min): 510 ng/mL
- concentration at 60 min ([2]; blood drawing time 60 min): 260 ng/mL
- concentration at 120 min ([2]; blood drawing time 120 min): 100 ng/mL
- concentration at 360 min ([2]; blood drawing time 360 min): 35 ng/mL
- T/C (%) [3]: 40.0% and 37.5%
- T/C (%) ([3]; listed as paclitaxel alone): 37.5% and 40.0%
